Molecular target: T1, alpha1 adrenoceptors (Rattus norvegicus, UniProt P15823)
T1 construct: from tissue; host or cells: rat cardiac membranes
T1 sequence (P15823 1-515): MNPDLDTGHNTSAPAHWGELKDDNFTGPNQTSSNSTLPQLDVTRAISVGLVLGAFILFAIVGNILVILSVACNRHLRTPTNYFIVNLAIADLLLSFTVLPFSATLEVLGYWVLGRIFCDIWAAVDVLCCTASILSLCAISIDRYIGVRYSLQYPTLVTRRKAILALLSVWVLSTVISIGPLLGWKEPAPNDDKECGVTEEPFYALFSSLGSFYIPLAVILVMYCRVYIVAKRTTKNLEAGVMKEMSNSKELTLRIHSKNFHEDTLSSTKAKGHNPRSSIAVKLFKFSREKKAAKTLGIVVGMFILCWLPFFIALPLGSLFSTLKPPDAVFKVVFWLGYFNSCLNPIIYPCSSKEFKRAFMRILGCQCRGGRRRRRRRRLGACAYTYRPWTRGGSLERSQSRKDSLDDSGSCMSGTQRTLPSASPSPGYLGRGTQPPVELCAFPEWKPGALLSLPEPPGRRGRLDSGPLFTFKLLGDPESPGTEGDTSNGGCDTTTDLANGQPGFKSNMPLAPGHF
Assay: Affinity for alpha1 adrenoceptors: displacement of tritiated prazosin on rat cardiac membranes
Type: binding
Conditions: Ki from IC50 by Cheng and Prusoff, read-out: Inhibition constants at alpha-1-adrenoceptor (Ki)
Description: The affinity of compounds of the general formula I for alpha1 adrenoceptors was established using the method described by R. S. Williams, D. F. Dukes and […] in J. Cardiovasc. Pharmacol. 3, 522-531 (1981). In this method the competitive displacement of tritiated prazosin (2-(4-(2-furoyl)-1-piperazinyl)-4-amino-6,7-dimethoxy-quinazoline) on rat-cardiac membranes by the test substances is measured, and the IC50 (50% inhibition concentration) is determined as that concentration which brings about a 50% inhibition of the specific binding of tritiated prazosin to the alpha1 adrenoceptors in rat cardiac membranes.
The concentration-independent inhibitor constants K1 -alpha1 were determined from the IC50 values as stated by Y. Cheng and H. W.Prusoff in Biochem. Pharmacol. 22, 3099-3108 (1973).

`COc1ccccc1N1CCN(CCCN(C)c2c(Cl)cnn(C)c2=O)CC1` [2-Methyl-5-chloro-4-(methyl-(3-(4-(2-methoxyphenyl)piperazinyl-1)propyl)amino)-3(2H)-pyridazinone] and `COc1ccccc1N1CCN(CCNc2ccnn(C)c2=O)CC1` [2-Methyl-4-((2-(4-(2-methoxyphenyl)piperazinyl-1)ethyl)amino)-3(2H)-pyridazinone] are within 1.5-fold of each other in Ki: 12.9 nM for the first, 15.7 nM for the second.

Going from `Cc1ccc(N2CCN(CCCNc3c(Cl)cnn(C)c3=O)CC2)c(O)c1` [2-Methyl-5-chloro-4-((3-(4-(2-hydroxy-4-methylphenyl)piperazinyl-1)propyl)amino)-3(2H)-pyridazinone] to `COc1ccccc1N1CCN(CCCNc2cc(Cl)n[nH]c2=O)CC1` [6-Chloro-4-((3-(4-(2-methoxyphenyl)piperazinyl-1)propyl)amino)-3(2H)-pyridazinone], the Ki rises from 5.34 nM to 11 nM (2.1-fold). The first binds more tightly here.

Compared with `Cc1ccc(N2CCN(CCCNc3cnn(C)c(=O)c3Cl)CC2)c(O)c1` [2-Methyl-4-chloro-5-((3-(4-(2-hydroxy-4-methylphenyl)piperazinyl-1)propyl)amino)-3(2H)-pyridazinone], `CCOc1cc(C)ccc1N1CCN(CCCNc2ccnn(C)c2=O)CC1` [2-Methyl-4-((3-(4-(2-ethoxy-4-methylphenyl)piperazinyl-1)propyl)amino)-3(2H)-pyridazinone] is 3.1-fold higher in Ki: 4.33 nM for the first, 13.6 nM for the second.

Going from `COc1ccccc1N1CCN(CCNc2cc(Cl)n[nH]c2=O)CC1` [6-Chloro-4-((2-(4-(2-methoxyphenyl)piperazinyl-1)ethyl)amino)-3(2H)-pyridazinone] to `COc1ccccc1N1CCN(CCCN(C)c2cnn(C)c(=O)c2Cl)CC1` [2-Methyl-4-chloro-5-(methyl-(3-(4-(2-methoxyphenyl)piperazinyl-1)propyl)amino)-3(2H)-pyridazinone], the Ki falls from 12.8 nM to 3.55 nM (3.6-fold).

`COc1ccccc1N1CCN(CCCNc2ccn[nH]c2=O)CC1` [4-((3-(4-(2-Methoxyphenyl)piperazinyl-1)propyl)amino) -3(2H)-pyridazinone] and `Cc1ccc(N2CCN(CCCNc3ccnn(C)c3=O)CC2)c(O)c1` [2-Methyl-4-((3-(4-(2-hydroxy-4-methylphenyl)piperazinyl-1)propyl)amino)-3(2H)-pyridazinone] are within 1.5-fold of each other in Ki: 26.1 nM for the first, 20.9 nM for the second.

First: Cn1nccc(NCCCN2CCN(c3ccccc3F)CC2)c1=O [2-Methyl-4-((3-(4-(2-fluorophenyl)piperazinyl-1)propyl)amino)-3(2H)-pyridazinone]
Second: COc1cc(C)ccc1N1CCN(CCCNc2cc(Cl)n[nH]c2=O)CC1 [6-Chloro-4-((3-(4-(2-methoxy-4-methylphenyl)piperazinyl-1)propyl)amino)-3(2H)-pyridazinone]
The Ki of the first is 4-fold higher: 30.2 nM for the first, 7.49 nM for the second. The second binds more tightly here.

First: CCOc1cc(C)ccc1N1CCN(CCCNc2c(Cl)cnn(C)c2=O)CC1 [2-Methyl-5-chloro-4-((3-(4-(2-ethoxy-4-methylphenyl)piperazinyl-1)propyl)amino)-3(2H)-pyridazinone]
Second: Cn1ncc(NCCN2CCN(c3ccccc3O)CC2)cc1=O [2-Methyl-5-((2-(4-(2-hydroxyphenyl)piperazinyl-1)ethyl)amino)-3(2H)-pyridazinone]
The Ki of the first is 13-fold lower: 4.99 nM for the first, 65.8 nM for the second. The first binds more tightly here.

Compared with `Cc1ccccc1N1CCN(CCCNc2cnn(C)c(=O)c2)CC1` [2-Methyl-4-((3-(4-(2-methylphenyl)piperazinyl-1)propyl)amino)-3(2H)-pyridazinone], `COc1ccccc1N1CCN(CCCCNc2cc(Cl)n[nH]c2=O)CC1` [6-Chloro-4-((4-(4-(2-methoxyphenyl)-1-piperazinyl)butyl)amino)-3(2H)-pyridazinone] is 15-fold lower in Ki: 49.3 nM for the first, 3.34 nM for the second. The second binds more tightly here.

Compared with `CCN(CCN1CCN(c2ccccc2OC)CC1)c1cnn(C)c(=O)c1Cl` [2-Methyl-4-chloro-5-(ethyl-(2-(4-(2-methoxyphenyl)piperazinyl-1)ethyl)amino)-3(2H)-pyridazinone], `Cn1ncc(Cl)c(NCCN2CCN(c3ccccc3OCc3ccccc3)CC2)c1=O` [2-Methyl-5-chloro-4-((2-(4-(2-benzyloxyphenyl)piperazinyl-1)ethyl)amino)-3(2H)-pyridazinone] is 15-fold lower in Ki: 37.1 nM for the first, 2.54 nM for the second.

Compared with `COc1ccccc1N1CCN(CCCNc2cc(Cl)nn(CCO)c2=O)CC1` [6-Chloro-2-hydroxyethyl-4-((3-(4-(2-methoxyphenyl)piperazinyl-1)propyl)amino)-3(2H)-pyridazinone], `COc1ccccc1N1CCN(CCCCNc2cnn(C)c(=O)c2Cl)CC1` [2-Methyl-4-chloro-5-((4-(4-(2-methoxyphenyl)-1-piperazinyl)butyl)amino)-3(2H)-pyridazinone] is 1.6-fold lower in Ki: 9.6 nM for the first, 6.05 nM for the second.

Going from `COc1ccccc1N1CCN(CCCCNc2ccnn(C)c2=O)CC1` [2-Methyl-4-((4-(4-(2-methoxyphenyl)piperazinyl-1)butyl)amino)-3(2H)-pyridazinone] to `Cc1ccccc1N1CCN(CCCNc2c(Cl)cnn(C)c2=O)CC1` [2-Methyl-5-chloro-4-((3-(4-(2-methylphenyl)piperazinyl-1)piperazinyl-1)propyl)amino)-3(2H)-pyridazinone], the Ki falls from 11.8 nM to 4.45 nM (2.7-fold). The second binds more tightly here.

`COc1ccccc1N1CCN(CCNc2cnn(-c3ccccc3)c(=O)c2)CC1` [2-Phenyl-5-((2-(4-(2-methoxyphenyl)piperazinyl-1)ethyl)amino)-3(2H)-pyridazinone] and `O=c1[nH]nccc1NCCN1CCN(c2ccccc2O)CC1` [4((2-(4-(2-Hydroxyphenyl)piperazinyl-1)ethyl)amino)-3(2H)-pyridazinone] are within 1.5-fold of each other in Ki: 61.6 nM for the first, 84 nM for the second.

First: COc1ccccc1N1CCN(CCNc2ccn[nH]c2=O)CC1 [4-((2-(4-(2-Methoxyphenyl)piperazinyl-1)ethyl)amino)-3(2H)-pyridazinone]
Second: Cc1ccccc1N1CCN(CCNc2cnn(C)c(=O)c2Cl)CC1 [2-Methyl-4-chloro-5-((2-(4-(2-methylphenyl)piperazinyl-1)ethyl)amino)-3(2H)-pyridazinone]
The Ki of the first is 6.7-fold higher: 42.2 nM for the first, 6.27 nM for the second. The second binds more tightly here.

`COc1ccccc1N1CCN(CCNc2c(Cl)cnn(CCN(C)C)c2=O)CC1` [2-(2-Dimethylaminoethyl)-5-chloro-4-((2-(4-(2-methoxyphenyl)piperazinyl-1)ethyl)amino)-3(2H)-pyridazinone] and `Cn1ncc(NCCN2CCN(c3ccccc3O)CC2)c(Cl)c1=O` [2-Methyl-4-chloro-5-((2-(4-(2-hydroxyphenyl)piperazinyl-1)ethyl)amino)-3(2H)-pyridazinone] are within 1.5-fold of each other in Ki: 15.8 nM for the first, 15.4 nM for the second.

First: CCOc1ccccc1N1CCN(CCCNc2ccn[nH]c2=O)CC1 [4-((3-(4-(2-Ethoxyphenyl)piperazinyl-1)propyl)amino)-3(2H)pyridazinone]
Second: Cn1ncc(Cl)c(NCCCN2CCN(c3ccccc3F)CC2)c1=O [2-Methyl-5-chloro-4-((3-(4-(2-fluorophenyl)piperazinyl-1)propyl)amino)-3(2H)-pyridazinone]
The Ki of the first is 2.7-fold higher: 13 nM for the first, 4.89 nM for the second.

Going from “2-Methyl-4-((2-(4-(2-fluorophenyl)piperazinyl-1)ethyl) amino)-3(2H)-pyridazinone” to `COc1ccccc1N1CCN(CCNc2c(Cl)cn[nH]c2=O)CC1` [5-Chloro-4-((2-(4-methoxyphenyl)piperazinyl-1)ethyl)amino)-3(2H)-pyridazinone], the Ki falls from 89.4 nM to 2.95 nM (30-fold). The second binds more tightly here.

Compared with `Cc1ccccc1N1CCN(CCNc2c(Cl)cnn(C)c2=O)CC1` [2-Methyl-5-chloro-4-((2-(4-(2-methylphenyl)piperazinyl-1)ethyl)amino)-3(2H)-pyridazinone], `CCOc1cc(C)ccc1N1CCN(CCCNc2cnn(C)c(=O)c2)CC1` [1-Methyl-5-((3-(4-(2-ethoxy-4-methylphenyl)piperazinyl-1)propyl)amino)-3(2H)-pyridazinone] is 19-fold higher in Ki: 1.21 nM for the first, 23.3 nM for the second. The first binds more tightly here.

`CCOc1ccccc1N1CCN(CCNc2ccnn(C)c2=O)CC1` [2-Methyl-4-((2-(4-(2-ethoxyphenyl)piperazinyl-1)ethyl)amino)-3(2H)-pyridazinone] and `CCn1nc(Cl)cc(NCCCN2CCN(c3ccccc3OC)CC2)c1=O` [6-Chloro-2-ethyl-4-((3-(4-(2-methoxyphenyl)-1-piperazinyl)propyl)amino)-3(2H)-pyridazinone] are within 1.5-fold of each other in Ki: 13.6 nM for the first, 18 nM for the second.

Compared with `Cc1ccccc1N1CCN(CCCNc2cnn(C)c(=O)c2Cl)CC1` [2-Methyl-4-chloro-5-((3-(4-(2-methylphenyl)piperazinyl-1)propyl)amino)-3(2H)-pyridazinone], `COc1ccccc1N1CCN(CCCCNc2c(Cl)cnn(C)c2=O)CC1` [2-methyl-5-chloro-4-((4-(4-(2-methoxyphenyl)-1-piperazinyl)butyl)amino)-3(2H)-pyridazinone] is 15-fold lower in Ki: 31.4 nM for the first, 2.15 nM for the second.

First: CC(C)Oc1ccccc1N1CCN(CCNc2cc(Cl)n[nH]c2=O)CC1 [6-Chloro-4-((2-(4-(2-iso-propoxyphenyl)piperazinyl-1)ethyl)amino)-3(2H)-pyridazinone]
Second: CCOc1cc(C)ccc1N1CCN(CCCNc2cnn(C)c(=O)c2Cl)CC1 [2-Methyl-4-chloro-5-((3-(4-(2-ethoxy-4-methylphenyl)piperazinyl-1)propyl)yamino)-3(2H)-pyridazinone]
The Ki of the first is 2.6-fold higher: 10 nM for the first, 3.78 nM for the second. The second binds more tightly here.

Source: patent publication US5034391A, “Piperazinylalkyl-3(2H)-pyridazinones and the use thereof as agents lowering blood pressure” (CL Pharma Aktiengesellschaft, priority 1988, dated 1991)
